This is an account of results in US20100055217A1, “COSMETIC COMPOSITION COMPRISING A COMBINATION OF LIPOCHROMAN-6 AND AN EXTRACT OF LONGOZA, AND ITS USE” (LVMH RECHERCHE, priority 2008, published 2010).

The test system of the experiment is oxidized proteins of normal human keratinocytes (NHK). Description: Level of oxidized proteins of epidermal cells (DNPH/anti-DNP immunostaining, confocal image analysis). The note with it: for Proportion of oxidized proteins/cell, KHN 0002: NHK donor KHN 0002; for Proportion of oxidized proteins/cell, KHN 0002 / Proportion of oxidized proteins/cell, KHN 9726: 48 h treatment; for Proportion of oxidized proteins/cell, KHN 9726: NHK donor KHN 9726; for DNP marking/no. of cells / DNP marking/surface area measured / Surface area of DNP marking: NHK; for DNP marking/no. of cells / DNP marking/surface area measured / Surface area of DNP marking / Proportion of oxidized proteins/cell, Average / Reduction %/control: 48 h; for Proportion of oxidized proteins/cell, Average / Reduction %/control: average of both NHK donors; for Reduction %/control: vs control excipient. Type of experiment: cell-based. The procedure: Normal human keratinocytes (NHK) isolated from two samplings of humans skin from two different donors, and referred to hereinafter as KHN002 and KHN9726, are cultured in T75 flasks in complete KSFM medium (Invitrogen GIBCO) at 37° C. and 5% of CO2, and are seeded at 20 000 cells per well in 8-well Lab-Tek II culture systems (Nalge Nunc International).
After 48 h of culture, the cells are treated with the treatment solutions (see below).
A solution of Lipochroman-6 at 0.004% by weight per volume (w/v) is prepared (solution A).
This is done by dissolving 20 mg of lipochroman-6 powder (supplier: Lipotec) in 2 ml of ethanol (solution at 10 mg/ml). This solution is diluted (40 μl of the stock solution in 10 ml of KSFm medium) to give solution A.
Furthermore, a solution of Longoza at 0.2% w/v in the KSFMc medium is prepared (solution B), from the 1% w/v solution prepared in accordance with step g) of Example 1. The 1% w/v Longoza extract solution is diluted ([…] of the 1% w/v solution in 6 ml of KSFm medium) to give said solution B.
The treatment solutions are prepared by diluting solutions A and B, prepared above, in the KSFMc medium to give the correct percentage of each of the actives of the combination (% expressed by weight per volume).
Each treatment is carried out on 3 wells per cell type. • control: KSFMc • solvent control: ethanol 0.1% in KSFMc medium • lipochroman 0.001% • lipochroman 0.002% • lipochroman 0.001%+Longoza 0.05% • lipochroman 0.001%+Longoza 0.1% • lipochroman 0.002%+Longoza 0.05% • lipochroman 0.002%+Longoza 0.1%
After 48 hours of treatment, the KSFM medium is drawn off.
The cells are rinsed with PBS (PBS Tablets, Invitrogen GIBCO), and then fixed on slides by means of formaline (Formalin Solution 10% Neutral Buffered, Sigma) for 10 minutes at ambient temperature. After rinsing with PBS, the culture chambers are filled with a 0.1% Triton solution (Triton X-100, Sigma) for 10 minutes and then rinsed with PBS.
The culture chambers are subsequently disassembled and the slides are immersed in a solution of 2,4-dinitrophenylhydrazine (300 mg of DNPH (Fluka) in an ethanol/sulphuric acid mixture (98.5 ml/1.5 ml)) for 30 minutes.
The DNPH reacts with the carbonyl groups of the oxidized proteins in accordance with the following reaction:
The slides are rinsed ten times with PBS. The cells are then covered with a solution of PBS/BSA at 1% (10 g/l) by weight at ambient temperature for 30 minutes.
The dinitrophenyl (DNP) groups bound to the oxidized proteins are recognized by a primary anti-DNP antibody.
For this purpose, in a first step, the slides are covered with a solution of primary antibody (monoclonal mouse anti-DNP antibody, Sigma), diluted at 1/500 th in a PBS/BSA 1% solution, and are incubated for 60 minutes at ambient temperature in an oven, then rinsed with a PBS-Tween0.1% (Tween20, Merck) solution.
In a second step, the cells are covered with a solution of secondary antibody (Alexafluor 546 Goat anti-mouse, Invitrogen) in a PBS/BSA 1% by weight solution, and are incubated in the absence of light for 60 minutes. The slides are subsequently rinsed with PBS-Tween and then with PBS.
In a third step, a few drops of aqueous mounting medium (Fluorescent Mounting Medium, DAKO, S 3023) are applied to the slides, which are subsequently stored at 4° C. in the dark.
The photographs are taken by confocal microscopy (Axioplan microscope, Zeiss, and Krypton-Argon Laser, BioRad) with the aid of the LaserSharp 2000 software (BioRad). For each condition, three photos are taken with the x40 lens, with the same acquisition parameters (gain, iris).
The excitation wavelength of the fluorochrome is 546 nm and the emission wavelength is 573 nm.
In practice, an exciting fluorescence at […] is applied by the confocal laser to the cells. The fluorochrome Alexafluor 546, which represents the oxidized proteins, emits fluorescence at 573 nm, which is recovered by a specific filter and can be observed. […]

As to `COc1cc2c(cc1O)CCC(C)(C)O2` [lipochroman-6], where the note is “lipochroman-6 0.001% w/v”, the “Proportion of oxidized proteins/cell, KHN 0002” value worked out at 76.3; the “Proportion of oxidized proteins/cell, KHN 9726” value worked out at 88; the “Proportion of oxidized proteins/cell, Average” value was 82.1; the Reduction %/control is recorded as −19.43%. Also, under “lipochroman-6 0.002% w/v”, the “Proportion of oxidized proteins/cell, KHN 0002” value came out at 60.9; the “Proportion of oxidized proteins/cell, KHN 9726” value is listed as 43; the “Proportion of oxidized proteins/cell, Average” value is given as 52; the Reduction %/control is reported as −48.97%. Besides, under “Lipochroman 0.001%”, the “DNP marking/no. of cells” value is 82.1, the “DNP marking/surface area measured” value is on record as 28.7% and the “Surface area of DNP marking” value amounted to 3776. For the same molecule, under “Lipochroman 0.002%”, the “DNP marking/no. of cells” value was determined as 52.0, the “DNP marking/surface area measured” value turned out to be 18.4% and the “Surface area of DNP marking” value is 2415.
